Key:
[1] = compound: CCc1cnn2c(NCc3ccc[n+]([O-])c3)cc(N3CCCC[C@H]3CCO)nc12
LEE011/Ribociclib = compound: CN(C)C(=O)c1cc2cnc(Nc3ccc(N4CCNCC4)cn3)nc2n1C1CCCC1 [LEE011/Ribociclib]
Doxorubicin = compound: COc1cccc2c1C(=O)c1c(O)c3c(c(O)c1C2=O)C[C@@](O)(C(=O)CO)C[C@@H]3O[C@H]1C[C@H](N)[C@H](O)[C@H](C)O1 [Doxorubicin]
Pictilisib/GDC0941 = compound: CS(=O)(=O)N1CCN(Cc2cc3nc(-c4cccc5[nH]ncc45)nc(N4CCOCC4)c3s2)CC1 [Pictilisib/GDC0941]
Ceritinib/LDK378 = compound: Cc1cc(Nc2ncc(Cl)c(Nc3ccccc3S(=O)(=O)C(C)C)n2)c(OC(C)C)cc1C1CCNCC1 [Ceritinib/LDK378]
[2] = compound: Cc1nn(C)c(COc2ccc(N3CCN(S(=O)(=O)N(C)C)CC3)cc2)c1-c1cccc2c(CCCOc3cccc4ccccc34)c(C(=O)O)n(CCN3CCOCC3)c12
YKL-5-124 = compound: C=CC(=O)Nc1ccc(C(=O)Nc2[nH]nc3c2CN(C(=O)N[C@H](CN(C)C)c2ccccc2)C3(C)C)cc1 [YKL-5-124]; assay: increase in dead-cell fraction, 72 h; higher = more death;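 also: breast cancer cell lines in 384-well plates, stained with Hoechst plus LIVE/DEAD far red dye and imaged, cells above an LDR intensity threshold counted dead, Hoechst-negative corpses included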
BSJ-03-123 = compound: CC(=O)c1c(C)c2cnc(Nc3ccc(N4CCN(CCOCCOCCOCCNC(=O)COc5cccc6c5C(=O)N(C5CCC(=O)NC5=O)C6=O)CC4)cn3)nc2n(C2CCCC2)c1=O [BSJ-03-123]; assay: as above
[3] = compound: CC(=O)c1c(C)c2cnc(Nc3ccc(N4CCNCC4)cn3)nc2n(C2CCCC2)c1=O; assay: as above
[4] = compound: CCN1CCN(Cc2ccc(Nc3ncc(F)c(-c4cc(F)c5nc(C)n(C(C)C)c5c4)n3)nc2)CC1; assay: as above
Neratinib/HKI272 = compound: CCOc1cc2ncc(C#N)c(Nc3ccc(OCc4ccccn4)c(Cl)c3)c2cc1NC(=O)/C=C/CN(C)C [Neratinib/HKI272]; assay: as above
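For GR50, 72 h in this document: breast cancer and non-malignant breast epithelial cell lines, Deep Dye Drop or Dye Drop imaging, nine half-log doses, GR normalized to time-zero plates and DMSO-only controls.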

In the case of HCC1187, the “GR50, 72 h” value [1] is reported as 0.00577 µM, the “GR50, 72 h” value (LEE011/Ribociclib) is reported as > 10 µM and the “GR50, 72 h” value (Doxorubicin) is reported as 0.00119 µM. The “GR50, 72 h” value (Pictilisib/GDC0941) was 0.571 µM, the “GR50, 72 h” value (Ceritinib/LDK378) was 1.49 µM and the “GR50, 72 h” value [2] was > 10 µM. The “increase in dead-cell fraction” value (YKL-5-124; 0.001 µM) was 0.0446, the “increase in dead-cell fraction” value (YKL-5-124; 0.003162 µM) was 0.0713 and the “increase in dead-cell fraction” value (YKL-5-124; 0.01 µM) was 0.133. The “increase in dead-cell fraction” value (YKL-5-124; 0.03162 µM) was 0.0654, the “increase in dead-cell fraction” value (YKL-5-124; 0.1 µM) was 0.0694 and the “increase in dead-cell fraction” value (YKL-5-124; 0.3162 µM) was 0.0946. For the same cell line, the “increase in dead-cell fraction” value (YKL-5-124; 1 µM) was 0.164, the “increase in dead-cell fraction” value (YKL-5-124; 3.162 µM) was 0.17 and the “increase in dead-cell fraction” value (YKL-5-124; 10 µM) was 0.406. For the same cell line, the “increase in dead-cell fraction” value (BSJ-03-123; 0.001 µM) was 0.0005, the “increase in dead-cell fraction” value (BSJ-03-123; 0.003162 µM) was -0.0076 and the “increase in dead-cell fraction” value (BSJ-03-123; 0.01 µM) was -0.0142. The “increase in dead-cell fraction” value (BSJ-03-123; 0.03162 µM) was -0.0171, the “increase in dead-cell fraction” value (BSJ-03-123; 0.1 µM) was 0.013 and the “increase in dead-cell fraction” value (BSJ-03-123; 0.3162 µM) was 0.0153. For the same cell line, the “increase in dead-cell fraction” value (BSJ-03-123; 1 µM) was 0.037, the “increase in dead-cell fraction” value (BSJ-03-123; 3.162 µM) was 0.0469 and the “increase in dead-cell fraction” value (BSJ-03-123; 10 µM) was 0.323. The “increase in dead-cell fraction” value ([3]; 0.0003162 µM) was -0.0075, the “increase in dead-cell fraction” value ([3]; 0.001 µM) was 0.0038 and the “increase in dead-cell fraction” value ([3]; 0.003162 µM) was 0.0189. For the same cell line, the “increase in dead-cell fraction” value ([3]; 0.01 µM) was 0.0048, the “increase in dead-cell fraction” value ([3]; 0.03162 µM) was -0.0042 and the “increase in dead-cell fraction” value ([3]; 0.1 µM) was -0.001. For the same cell line, the “increase in dead-cell fraction” value ([3]; 0.3162 µM) was -0.0035, the “increase in dead-cell fraction” value ([3]; 1 µM) was 0.0145 and the “increase in dead-cell fraction” value ([3]; 3.162 µM) was 0.0042. For the same cell line, the “increase in dead-cell fraction” value ([4]; 0.001 µM) was 0.0028, the “increase in dead-cell fraction” value ([4]; 0.003162 µM) was 0.0037 and the “increase in dead-cell fraction” value ([4]; 0.01 µM) was 0.0062. The “increase in dead-cell fraction” value ([4]; 0.03162 µM) was -0.0026, the “increase in dead-cell fraction” value ([4]; 0.1 µM) was 0.0042 and the “increase in dead-cell fraction” value ([4]; 0.3162 µM) was 0.0069. For the same cell line, the “increase in dead-cell fraction” value ([4]; 1 µM) was -0.0008, the “increase in dead-cell fraction” value ([4]; 3.162 µM) was 0.0149 and the “increase in dead-cell fraction” value ([4]; 10 µM) was 0.0352. For the same cell line, the “increase in dead-cell fraction” value (Neratinib/HKI272; 0.0003162 µM) was -0.0132, the “increase in dead-cell fraction” value (Neratinib/HKI272; 0.001 µM) was 0.0086 and the “increase in dead-cell fraction” value (Neratinib/HKI272; 0.003162 µM) was -0.0045. For the same cell line, the “increase in dead-cell fraction” value (Neratinib/HKI272; 0.01 µM) was -0.0058 and the “increase in dead-cell fraction” value (Neratinib/HKI272; 0.03162 µM) was -0.0052.

Reference: the supplement of paper PMC9663587
